One assay deals with KRAS Q61H (Homo sapiens (Human), UniProt P01116+P62937, Q61H). The experiment in a line: Ras-Raf disruption/FRET/MOA assay (BRAF RBD, Cyclophilin A). Type of assay: biochemical. The method in brief: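 Ras-GMPPNP (12.5 nM), BRAF RBD (50 nM) and 25 μM Cyclophilin A were incubated with compound for 3 h at 25° C, then detected 1.5 h with anti-His Eu and anti-GST APC; IC50 values follow from the reduced TR-FRET ratio.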

The target of a further assay is NRAS WT (Homo sapiens (Human), UniProt P01111+P62937). Described as above. Type of assay: biochemical. The method in brief:
(§1)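 First, 25 μM Cyclophilin A, 12.5 nM His6-Ras-GMPPNP and 50 nM GST-BRAF RBD are mixed with diluted compound at pH 7.3. Next, 3 h at 25° C. Then 10 nM anti-His Eu-W1024 plus 50 nM anti-GST allophycocyanin for 1.5 h before TR-FRET reading.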

Assay [1] concerns K-Ras G12C (NCI-H358 cells). The experiment in a line: Potency assay: pERK in NCI-H358 cells. Type of assay: cell-based, human. The following applies: NCI-H358 cells, 4 hours, read-out: pERK EC50 (H358 KRAS G12C). The method in brief: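 Cells plated the day before were exposed for 4 h at 37° C, 5% CO2 to a 10-point, 3-fold DMSO dilution series (10 mM top stock), in duplicate. Phospho-ERK was read by AlphaLISA SureFire Ultra or by In-Cell Western with DRAQ5 DNA stain, and IC50 came from a 4-parameter sigmoidal fit.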

The next assay deals with NCI-H358 (K-Ras G12C). The experiment in a line: CellTiter-Glo cell viability assay, NCI-H358. Type of assay: cell-based, human. Particulars: 5-day treatment, read-out: H358 Cell Viability assay data (K-Ras G12C, IC50). The method in brief:
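Cells seeded, compound added directly to plates; day 5: plates to RT ~30 min, CellTiter-Glo luminescence; (sample/avg DMSO)*100; 4-parameter fit.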
Background: ATP-based viability assays read luminescence as a measure of living cells.

In another assay the target is NRAS Q61R (Homo sapiens (Human), UniProt P01111+P62937, Q61R). The assay can be described thus: Ras-Raf disruption/FRET/MOA assay (BRAF RBD, Cyclophilin A). The format is biochemical. The method in brief: as §1

SMILES strings stand for the structures. Like-named read-outs stand apart in the source and are kept apart here. Some results are limits rather than exact numbers.

Chain of NRAS WT (P01111 whole entry): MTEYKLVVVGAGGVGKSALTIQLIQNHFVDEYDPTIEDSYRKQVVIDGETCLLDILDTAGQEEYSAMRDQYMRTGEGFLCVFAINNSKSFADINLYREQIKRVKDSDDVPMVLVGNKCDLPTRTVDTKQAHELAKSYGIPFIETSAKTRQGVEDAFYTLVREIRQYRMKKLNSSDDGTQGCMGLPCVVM
Chain of NRAS WT (P62937 whole entry): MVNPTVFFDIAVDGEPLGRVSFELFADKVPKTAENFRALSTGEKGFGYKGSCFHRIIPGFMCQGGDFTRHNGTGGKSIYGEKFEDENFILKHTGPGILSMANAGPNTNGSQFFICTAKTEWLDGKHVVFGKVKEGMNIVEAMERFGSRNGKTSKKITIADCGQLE
Chain of KRAS Q61H (P01116 other isoform, or with tags, fused parts or gaps Q61H): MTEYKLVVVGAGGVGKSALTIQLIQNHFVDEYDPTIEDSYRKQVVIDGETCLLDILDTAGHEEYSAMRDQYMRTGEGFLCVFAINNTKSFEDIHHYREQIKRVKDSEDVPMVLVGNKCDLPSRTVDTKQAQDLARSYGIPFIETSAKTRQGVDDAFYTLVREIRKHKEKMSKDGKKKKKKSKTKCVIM
Chain of KRAS Q61H (P62937 whole entry): as the sequence (P62937 whole entry) above
Chain of NRAS Q61R (P01111 whole entry Q61R): as the sequence (P01111 whole entry) above, with Q61R counted along it
Chain of NRAS Q61R (P62937 whole entry): as the sequence (P62937 whole entry) above

One may read the IC50 as the midpoint of a concentration-inhibition curve. As a reminder, the EC50 is the concentration at which the effect is half-maximal. As to `CCn1c(-c2cccnc2[C@H](C)OC)c2c3cc(ccc31)-c1csc(n1)C[C@H](NC(=O)[C@H](C(C)C)N(C)C(=O)N1CCN(C(C)=O)CC1)C(=O)N1CCC[C@H](N1)C(=O)OCC(C)(C)C2` [Compound A291], the IC50 against KRAS Q61H is 10 to 100 nM; against NRAS WT, 10 to 100 nM; with NCI-H358 (K-Ras G12C) (Homo sapiens, NCI-H358, 120 h) it was less than 10 nM. For the same compound, the EC50 in assay [1] (Homo sapiens) is less than 5000 nM.

For `CCn1c(-c2cccnc2[C@H](C)OC)c2c3cc(ccc31)-c1cc(O)cc(c1)C[C@H](NC(=O)[C@H](C(C)C)N(C)C(=O)C1CCC3(CCOC3)O1)C(=O)N1CCC[C@H](N1)C(=O)OCC(C)(C)C2` (some centres unmarked) [Compound A409], the IC50 against KRAS Q61H fell in the range of 10 to 100 nM; at NRAS Q61R it was 100 to 1000 nM; against NRAS WT, 10 to 100 nM; in the assay on NCI-H358 (K-Ras G12C) (Homo sapiens, NCI-H358, 120 h), 10 to 100 nM. Further, in assay [1] (Homo sapiens), the EC50 is less than 5000 nM.

On to `CCO[C@@H]1c2nc(cs2)-c2ccc3c(c2)c(c(-c2cc(C4CCN(C5COC5)CC4)cnc2[C@H](C)OC)n3CC)CC(C)(C)COC(=O)[C@@H]2CCCN(N2)C(=O)[C@H]1NC(=O)[C@H]1[C@H](C)[C@@H]1C` [Compound A449, (1r,2R,3S)—N-((6^3S,3S,4S,Z)-3-ethoxy-1^1-ethyl-1^2-(2-((S)-1-methoxyethyl)-5-(1-(oxetan-3-yl)piperidin-4-yl)pyridin-3-yl)-10,10-dimethyl-5,7-dioxo-6^1,6^2,6^3,6^4,6^5,6^6-hexahydro-1^1H-8-oxa-2 (4,2)-thiazola-1 (5,3)-indola-6 (1,3)-pyridazinacycloundecaphane-4-yl)-2,3-dimethylcyclopropane-1-carboxamide], for which the IC50 was in the range of 100 to 1000 nM on KRAS Q61H and 10 to 100 nM in the assay on NCI-H358 (K-Ras G12C). Also, the EC50 in assay [1] is less than 5000 nM.

In the case of `CCn1c(-c2cccnc2[C@H](C)OC)c2c3cc(ccc31)-c1csc(n1)[C@@H](OCC1CCN(C)CC1)[C@H](NC(=O)[C@H]1C[C@@H]1C)C(=O)N1CCC[C@H](N1)C(=O)OCC(C)(C)C2` [Compound A451, (1S,2S)—N-((6^3S,3S,4S,Z)-1^1-ethyl-1^2-(2-((S)-1-methoxyethyl)pyridin-3-yl)-10,10-dimethyl-3-((1-methylpiperidin-4-yl)methoxy)-5,7-dioxo-6^1,6^2,6^3,6^4,6^5,6^6-hexahydro-1^1H-8-oxa-2 (4,2)-thiazola-1 (5,3)-indola-6 (1,3)-pyridazinacycloundecaphane-4-yl)-2-methylcyclopropane-1-carboxamide], the figures for the IC50 at KRAS Q61H and in the assay with NCI-H358 (K-Ras G12C) were 100 to 1000 nM and 10 to 100 nM, respectively. For the same compound, the EC50 in assay [1] is less than 5000 nM.

For `CCn1c(-c2cc(N3CCN(C)CC3)cnc2[C@H](C)OC)c2c3cc(ccc31)-c1csc(n1)C[C@H](NC(=O)[C@H](C(C)C)N(C)C(=O)N1CC(OC)C1)C(=O)N1CCC[C@H](N1)C(=O)OCC(C)(C)C2` [Compound A466], the IC50 against KRAS Q61H is 10 to 100 nM; on NRAS WT it was 10 to 100 nM; with NCI-H358 (K-Ras G12C) (Homo sapiens, NCI-H358, 120 h), less than 10 nM. The EC50 in assay [1] (Homo sapiens) was less than 5000 nM.

Turning to `CCOC1c2nc(cs2)-c2ccc3c(c2)c(c(-c2cc(C4CC5COCC(C4)N5C4CC4)cnc2C(C)OC)n3CC)CC(C)(C)COC(=O)C2CCCN(N2)C(=O)C1NC(=O)C1C(C)C1C` [Compound A483, (1r,2R,3S)—N-((6^3S,3S,4S,Z)-12-(5-((1R,5S,7s)-9-cyclopropyl-3-oxa-9-azabicyclo[3.3.1]nonan-7-yl)-2-((S)-1-methoxyethyl)pyridin-3-yl)-3-ethoxy-1^1-ethyl-10,10-dimethyl-5,7-dioxo-6^1,6^2,6^3,6^4,6^5,6^6-hexahydro-1^1H-8-oxa-2 (4,2)-thiazola-1 (5,3)-indola-6 (1,3)-pyridazinacycloundecaphane-4-yl)-2,3-dimethylcyclopropane-1-carboxamide], the IC50 was 10 to 100 nM on KRAS Q61H and less than 10 nM in the assay on NCI-H358 (K-Ras G12C). Moreover, the EC50 in assay [1] is less than 5000 nM.

As for `CCn1c(-c2cccnc2[C@H](C)OC)c2c3cc(ccc31)-c1cc(O)cc(c1)C[C@H](NC(=O)[C@H](C(C)C)N(C)C(=O)[C@@H]1OCC[C@H]1c1ccccc1)C(=O)N1CCC[C@H](N1)C(=O)OCC(C)(C)C2` [Compound A584], the half-maximal inhibitory concentration (IC50) against KRAS Q61H was 10 to 100 nM; at NRAS WT, 10 to 100 nM; in the assay with NCI-H358 (K-Ras G12C) (Homo sapiens, NCI-H358, 120 h), less than 10 nM. Moreover, the EC50 in assay [1] (Homo sapiens) was less than 5000 nM.

Values taken from US20250195521A1 (Revolution Medicines, Inc., priority 2020, published 2025).
